Where a name gives a salt, the structure may show the parent alone.
Legend:
[1] = tested on: intraocular pressure in rabbits; experiment: Intraocular pressure measurement after instillation of eye drops in rabbits; format: in vivo, rabbit (NZW, male); conditions: for time after instillation of maximum intraocular-pressure-reducing effect: 1% eye drops in phosphate buffer pH 7.0, 0.05 ml into right eye; for time after instillation of maximum intraocular-pressure-reducing effect / period of intraocular-pressure-reducing effect longer than that for the compound M / inhibition in vivo at 1 % / intraocular-pressure-reducing effect relative to that of the compound M: rabbit; for period of intraocular-pressure-reducing effect longer than that for the compound M / inhibition in vivo at 1 %: 1% eye drops; for inhibition in vivo at 1 %: Oryctolagus cuniculus, topical, 2 h, 120 minutes after instillation, read-out: maximum intraocular-pressure-reducing effect, intraocular pressure lower than that of the control eye; for intraocular-pressure-reducing effect relative to that of the compound M: after 120 minutes from the instillation
Protocol: Eye drops were prepared by dissolving each compound (1.0 g) in a phosphate buffer solution which was prepared by dissolving 0.8 g of sodium dihydrogen phosphate and 0.5 g of sodium chloride in purified water such that the final weight was 100 g. The pH was adjusted to 7.0 with sodium hydroxide.
As a control, a phosphate buffer solution (pH 7.0) in which 1.0 g of the compound M was not dissolved was used.
Each rabbit (NZW, male, 2.5 to 3.0 kg) was secured in a holder. One of the preparations (0.05 ml) was instilled into the right eye, and the phosphate buffer as control (0.05 ml) was instilled into the left eye. The intraocular pressures were measured serially using a TonoLab handheld mobile tonometer manufactured by Tiolat. The ratios to the control values were calculated and plotted with time (refer to figures).
Eye drops were prepared by dissolving the compound (S)-hexahydro-1-(4-fluoroisoquinoline-5-sulfonyl)-4-glycyl-2-methyl-1H-1,4-diazepine dihydrochloride (1.0 g) in 1.0 g of dimethyl sulfoxide and adding the resulting solution to a boric acid solution prepared by dissolving 2.0 g of boric acid in purified water such that the final weight was 100 g. The pH was adjusted to 7.0 with sodium hydroxide.
The eye drops were administered to a rabbit as in Example 1, and the intraocular pressures were measured.

[2] = molecular target: T1, recombinant ROCK II (1-602) (Homo sapiens, UniProt O75116); experiment: Rho-kinase assay (phosphate incorporation, [γ-32P]ATP, RSK peptide); format: biochemical; conditions: 10 nM ROCK II, 10 μM ATP, 30° C., 10 minutes
T1 construct: made in house; host or cells: Sf9 insect cells
T1 sequence (O75116 1-602): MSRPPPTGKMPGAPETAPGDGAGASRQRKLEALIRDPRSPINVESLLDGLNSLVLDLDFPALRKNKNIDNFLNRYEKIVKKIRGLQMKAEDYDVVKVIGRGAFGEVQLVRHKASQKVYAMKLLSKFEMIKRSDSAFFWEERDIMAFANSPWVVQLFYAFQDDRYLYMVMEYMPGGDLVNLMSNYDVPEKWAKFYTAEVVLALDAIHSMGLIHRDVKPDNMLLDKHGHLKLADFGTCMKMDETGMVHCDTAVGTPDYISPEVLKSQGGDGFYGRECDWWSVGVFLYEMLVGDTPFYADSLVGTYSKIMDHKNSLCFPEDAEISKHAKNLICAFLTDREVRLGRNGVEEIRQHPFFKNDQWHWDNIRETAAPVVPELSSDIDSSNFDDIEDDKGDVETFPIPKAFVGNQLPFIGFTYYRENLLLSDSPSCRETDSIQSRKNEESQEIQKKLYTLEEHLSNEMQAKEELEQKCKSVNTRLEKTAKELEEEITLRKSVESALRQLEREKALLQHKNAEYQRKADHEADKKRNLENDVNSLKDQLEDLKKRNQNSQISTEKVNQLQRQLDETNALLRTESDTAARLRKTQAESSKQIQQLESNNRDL
Protocol: Rho-kinase assays were performed using the compounds in various concentrations and the 50% inhibitory concentrations (hereinafter referred to as the “IC50 value”) of the compounds for Rho-kinase were calculated. In the Rho-kinase assay, phosphorylation reaction was performed using an activated form of recombinant ROCK II (1-602) obtained by expressing human ROCK II cDNA in Sf9 cells […], and the phosphate incorporation activity was defined as the Rho-kinase activity. Namely, the compounds were each added to a reaction solution containing 50 mM Tris-HCL (ph 7.4), […], 2 mM EDTA, 2 mM EGTA, 0.1% tween 20, 50 μM RSK peptide, 10 μM [γ-^32P]ATP, and 10 nM ROCK II, and the reaction was allowed to proceed at 30° C. for 10 minutes. The reaction mixture was spotted on phosphocellulose paper, and the reaction was stopped by dipping the phosphocellulose paper into a phosphoric acid solution. The phosphocellulose paper was washed with the phosphoric acid solution, and then radioactivity was measured with a liquid scintillation counter.
An Rho-kinase assay was performed, and the 50% inhibitory concentration (hereinafter referred to as the “IC50 value”) was calculated. The IC50 value of the reference compound (S)-hexahydro-1-(4-fluoroisoquinoline-5-sulfonyl)-4-glycyl-2-methyl-1H-1,4-diazepine dihydrochloride for Rho-kinase is shown in Table 2.

[3] = tested on: intraocular pressure in rabbits; conditions: literature reports; cited from earlier work

Row | Structure (SMILES) | time after instillation of maximum intraocular-pressure-reducing effect [1] [min] | period of intraocular-pressure-reducing effect longer than that for the compound M [1] | inhibition in vivo at 1 % [1] [%] | intraocular-pressure-reducing effect relative to that of the compound M [1] | IC50 [2] [nM] | effect on intraocular pressure in rabbits (reported) [3] | intraocular-pressure-reducing effect ([1]; 1% eye drops in dimethyl sulfoxide / boric acid solution pH 7.0, rabbit)
1 | C[C@H]1CNCCN1S(=O)(=O)c1cccc2cncc(Br)c12 [Compound B6, 2-(S)-1-(4-bromoisoquinoline-5-sulfonyl)-2-methylpiperazine dihydrochloride] | 120 | about 2 hours | 26 | substantially the same as that of the compound M | 634 |  | 
2 | C[C@H]1CNCCCN1S(=O)(=O)c1cccc2cncc(Br)c12 [Compound B7, (S)-hexahydro-1-(4-bromoisoquinoline-5-sulfonyl)-2-methyl-1H-1,4-diazepine dihydrochloride] | 120 | about 5 hours | 56 | 2.0 times | 28.4 |  | 
3 | C[C@H]1CNCCCCN1S(=O)(=O)c1cccc2cncc(Br)c12 [Compound B8, (S)-octahydro-1-(4-bromoisoquinoline-5-sulfonyl)-2-methyl-1,4-diazocine dihydrochloride] | 120 | about 1 hours | 47 | 1.7 times | 48.5 |  | 
4 | C[C@H]1CNCCCN1S(=O)(=O)c1cccc2cncc(Cl)c12 [Compound C7, (S)-hexahydro-1-(4-chloroisoquinoline-5-sulfonyl)-2-methyl-1H-1,4-diazepine dihydrochloride] | 120 | about 3 hours | 54 | 1.9 times | 25.8 |  | 
5 | C[C@H]1CNCCCCN1S(=O)(=O)c1cccc2cncc(Cl)c12 [Compound C8, (S)-octahydro-1-(4-chloroisoquinoline-5-sulfonyl)-2-methyl-1,4-diazocine dihydrochloride] | 120 | substantially the same as that for the compound M | 35 | 1.3 times | 21.1 |  | 
6 | C[C@H]1CNCCCN1S(=O)(=O)c1cccc2cncc(F)c12 [Compound F7, (S)-hexahydro-1-(4-fluoroisoquinoline-5-sulfonyl)-2-methyl-1H-1,4-diazepine dihydrochloride] | 120 | about 3 hours | 45 | 1.9 times | 85 |  | 
7 | C[C@H]1CNCCCCN1S(=O)(=O)c1cccc2cncc(F)c12 [Compound F8, (S)-octahydro-1-(4-fluoroisoquinoline-5-sulfonyl)-2-methyl-1,4-diazocine dihydrochloride] | 120 | about 1 hours | 45 | 1.6 times | 39.1 |  | 
8 | C[C@@H](N)[C@H]1CC[C@H](C(=O)Nc2ccncc2)CC1 [Compound Y-27632] |  |  |  |  |  | reduce intraocular pressure in rabbits | 
9 | O=S(=O)(c1cccc2cnccc12)N1CCCNCC1 [HA-1077] |  |  |  |  |  | reduce intraocular pressure in rabbits | 
10 | C#Cc1cncc2cccc(S(=O)(=O)N3CCCNC[C@@H]3C)c12.Cl.Cl [M, (S)-hexahydro-1-(4-ethynylisoquinoline-5-sulfonyl)-2-methyl-1 H-1,4-diazepine dihydrochloride, reference compound] | 120 |  | 28 |  | 19.5 |  | 
11 | C[C@H]1CN(C(=O)CN)CCCN1S(=O)(=O)c1cccc2cncc(F)c12.Cl.Cl [Reference Compound, (S)-hexahydro-1-(4-fluoroisoquinoline-5-sulfonyl)-4-glycyl-2-methyl-1H-1,4-diazepine dihydrochloride, reference compound] |  |  |  |  | 54 |  | a statistically significant intraocular-pressure-reducing effect was not observed
